Our source for the TGI values is PubChem BioAssay (NCI).

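Exposure lasted 48 hours, with cells grown in 96-well plates and compounds tested at five concentrations. TGI is the concentration that stops growth completely.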

Some test systems named below: ACHN renal; HCC-2998 colon; HCT-116 colon; MDA-N; SF-268 CNS; SW-620 colon; UACC-62 melanoma; BT-549 breast; SK-MEL-28 melanoma.
What all share (assay): DTP human tumour cell line panel, 48 h

Regarding `CC(C)(C)OC(=O)N1NC(c2ccccc2)CC1c1ccccc1` (stereo not drawn), the TGI was 68.6 µM in the assay with ACHN renal; > 100 µM with HCC-2998 colon; > 100 µM in the assay with HCT-116 colon; > 100 µM in the assay with MDA-N; > 100 µM in the assay on SF-268 CNS; > 100 µM in the assay with SW-620 colon. Moreover, in the assay with UACC-62 melanoma, the TGI stood at 88.1 µM.

Consider `Nc1nc2ccc(Sc3ccc4nc(N)[nH]c(=O)c4c3)cc2c(=O)[nH]1`, for which the TGI in the assay with ACHN renal, with BT-549 breast, in the assay with HCC-2998 colon, in the assay on HCT-116 colon, with SF-268 CNS and in the assay with SK-MEL-28 melanoma was > 100 µM throughout. The total growth inhibition concentration (TGI) in the assay with SW-620 colon and in the assay with UACC-62 melanoma was > 100 µM in each case.

Take `O=C1C[C@@]23CCC4(CC2CCC[C@H]3O1)OCCO4` (stereo partly drawn): the total growth inhibition concentration (TGI) in the assay on ACHN renal, in the assay on HCC-2998 colon, in the assay with HCT-116 colon, with MDA-N, with SF-268 CNS and with SK-MEL-28 melanoma was > 100 µM throughout. In addition, the total growth inhibition concentration (TGI) in the assay on SW-620 colon and in the assay with UACC-62 melanoma was > 100 µM in each case.

On to `COC(=O)C1Cc2c(OC)ccc(OC)c2C(O)C1C(=O)OC` (stereo not drawn), for which the total growth inhibition concentration (TGI) in the assay on ACHN renal, with HCT-116 colon, with MDA-N, with SF-268 CNS, in the assay with SK-MEL-28 melanoma and in the assay on SW-620 colon was > 100 µM each time. The total growth inhibition concentration (TGI) with UACC-62 melanoma was > 100 µM.

For `CC12CC(=O)Nc3ccccc3N1C(c1ccccc1)=NO2` (stereo not drawn), the TGI with ACHN renal, in the assay on BT-549 breast, with HCC-2998 colon, with HCT-116 colon, with MDA-N and with SF-268 CNS was > 100 µM each time. Besides, the TGI in the assay on SW-620 colon and in the assay with UACC-62 melanoma was > 100 µM throughout.

For `COc1ccc(-c2c(-c3ccc(OC)cc3)n3c(=O)n(C)c(=O)n23)cc1`, the TGI in the assay on ACHN renal, in the assay on HCC-2998 colon, with HCT-116 colon, in the assay on SK-MEL-28 melanoma, in the assay with SW-620 colon and in the assay on UACC-62 melanoma was > 100 µM throughout.

As for `CC1(C)CC(=O)c2c(nc3c(ccc4ccccc43)c2-c2ccc(NC(=O)CCC(=O)Nc3ccc(-c4c5c(nc6c4ccc4ccccc46)CC(C)(C)CC5=O)cc3)cc2)C1`, the TGI in the assay with ACHN renal, with BT-549 breast, in the assay with HCT-116 colon, in the assay with MDA-N, in the assay on SF-268 CNS and in the assay on SK-MEL-28 melanoma was > 100 µM each time. The TGI in the assay with SW-620 colon and with UACC-62 melanoma was > 100 µM each time.

Consider `O=C(c1ccccc1)N1C(=O)N(c2ccccc2)C(=Nc2ccccc2)C1=Nc1ccccc1`, for which the concentration for total growth inhibition (TGI) in the assay with ACHN renal, in the assay on HCC-2998 colon, in the assay with HCT-116 colon, in the assay with MDA-N, in the assay with SF-268 CNS and in the assay on SK-MEL-28 melanoma was > 100 µM each time. Also, the concentration for total growth inhibition (TGI) in the assay with SW-620 colon is > 100 µM; in the assay with UACC-62 melanoma, 31.8 µM.

Turning to `CO/N=C\c1ccc2c(c1)Sc1ccccc1O2`, the TGI with ACHN renal, in the assay on HCC-2998 colon, in the assay with HCT-116 colon, with MDA-N, in the assay on SF-268 CNS and in the assay with SK-MEL-28 melanoma was > 100 µM throughout. Also, the concentration for total growth inhibition (TGI) in the assay on SW-620 colon and in the assay on UACC-62 melanoma was > 100 µM in each case.

Consider `CCC(C)C(N)C(=O)N/N=C\c1c2c(nc3ccccc13)-c1cc3c(c(=O)n1C2)COC(=O)[C@]3(O)CC` (stereo partly drawn), for which the TGI is 0.575 µM with ACHN renal; > 30.2 µM in the assay on BT-549 breast; 15.2 µM with HCC-2998 colon; 2.96 µM in the assay on HCT-116 colon; > 100 µM in the assay on MDA-N; > 100 µM in the assay on SK-MEL-28 melanoma. Further, the results for the total growth inhibition concentration (TGI) in the assay with SW-620 colon and with UACC-62 melanoma were > 43.7 µM and 0.106 µM, respectively.

Turning to `O=Cc1ccc(OC[C@H]2COC(=O)N2)cc1`, the concentration for total growth inhibition (TGI) with ACHN renal, in the assay with BT-549 breast, with HCC-2998 colon, in the assay on HCT-116 colon, in the assay with SF-268 CNS and in the assay with SK-MEL-28 melanoma was > 100 µM each time. The concentration for total growth inhibition (TGI) in the assay with SW-620 colon and with UACC-62 melanoma was > 100 µM throughout.

For the compound `O=c1[nH]ncc2[nH]c3c4ccccc4ccc3c12`, the TGI in the assay on ACHN renal, in the assay with BT-549 breast, with HCC-2998 colon, with HCT-116 colon, in the assay with MDA-N and in the assay on SF-268 CNS was > 100 µM throughout. Also, the TGI in the assay on SW-620 colon is > 100 µM.

Consider `O=C(c1cccs1)c1nccc2c1cnc1ccccc12`, for which the TGI is > 100 µM with ACHN renal; > 100 µM in the assay on HCC-2998 colon; > 100 µM in the assay on HCT-116 colon; 98.6 µM in the assay with SF-268 CNS; > 100 µM in the assay with SK-MEL-28 melanoma; > 100 µM in the assay on SW-620 colon. Besides, the concentration for total growth inhibition (TGI) with UACC-62 melanoma was > 100 µM.

Consider `Cc1ccc(S(=O)(=O)CNC(=O)C(O)(O)C(F)(F)F)cc1`, for which the concentration for total growth inhibition (TGI) with BT-549 breast, in the assay with HCC-2998 colon, with HCT-116 colon, in the assay with MDA-N, with SF-268 CNS and in the assay on SK-MEL-28 melanoma was > 100 µM in each case. Moreover, the concentration for total growth inhibition (TGI) with SW-620 colon and in the assay on UACC-62 melanoma was > 100 µM throughout.

As for `COc1ccc2cc(CNCCCCCCCCNCc3ccc4cc(OC)ccc4c3)ccc2c1`, the TGI was 10.3 µM in the assay with ACHN renal; 9.97 µM with BT-549 breast; 31.8 µM in the assay on HCC-2998 colon; > 100 µM in the assay on HCT-116 colon; 9.8 µM in the assay on SK-MEL-28 melanoma; 4.38 µM in the assay with SW-620 colon. For the same compound, the TGI in the assay on UACC-62 melanoma turned out to be 3.79 µM.

For the compound `CC(C)(C)C(=O)Oc1ccc(/C=C/C(=O)c2ccc(OC(=O)C(C)(C)C)cc2)cc1`, the TGI with ACHN renal is > 100 µM; in the assay on HCC-2998 colon, > 100 µM; with HCT-116 colon, 71.4 µM; with MDA-N it was > 100 µM; in the assay with SF-268 CNS, > 100 µM; in the assay on SK-MEL-28 melanoma it was > 100 µM. The TGI in the assay with SW-620 colon and in the assay on UACC-62 melanoma was > 100 µM each time.

For the compound `CCOC(=O)C(=CNc1ccc(N(C2=NCC(C)S2)c2ccc(F)c(Cl)c2)cc1)C(=O)OCC` (stereo not drawn), the TGI is 39.8 µM in the assay with ACHN renal; 32 µM in the assay with HCC-2998 colon; 31.4 µM in the assay with HCT-116 colon; 43.1 µM in the assay on MDA-N; 55.3 µM in the assay with SF-268 CNS; 42.5 µM with SK-MEL-28 melanoma. The same compound had a concentration for total growth inhibition (TGI) with SW-620 colon of 57.1 µM.
